Test results as given in patent US12551449B2, “Tunable degradation in hydrogel microparticles” (LIKARDA, INC., priority 2019, dated 2026).

Legend:
[1] = thiol group(s); cited from earlier work
[2] = tested on: canine islets; assay: Cytotoxicity of UV light and photoinitiator on canine islets; assay type: cell-based; settings: 10 minutes UV ~40 mW/cm^2
Experimental: (§1) Dead cells were identified using propidium iodine staining and fluorescence microscopy. Fluorescence micrographs were captured with a Cytation 5 Imaging Multi-Mode Reader (Biotek Instruments, Inc, 531/647 nm ex/em). Cell death was quantified by calculating the ratio of red (dead) pixels to total islet pixels using Adobe Photoshop. Twenty-five individual islets were analyzed per group and were distinguished from non-islet tissues via dithizone staining. Results are reported as the average viable cell fraction and normalized to islet viability of the matched, untreated controls (i.e., islet from the same batch in culture medium).
For PEGDA and methacrylated hyaluronic acid (MeHA) microparticles, photocrosslinking was utilized. Thus, studies examining the toxicity of ultraviolet light (UV) and the photoinitiator were first conducted. Canine islets were suspended in Dulbecco's phosphate buffered saline (DPBS) containing 0, 0.025 or 0.05% (w/v) of the photoinitiator, IRGACURE® 2959. Approximately 50 IEQ were loaded into wells of a 24-well plate and irradiated with long-wave ultraviolet (UV) light for 3, 5 or 10 minutes. […] Cell death was evaluated via propidium iodide staining and quantified as described in the previous section.

[3] = tested on: canine islets; assay: Cytotoxicity of calcium (CSS component) on canine islets, propidium iodide staining; assay type: cell-based
Experimental: The cytotoxicity of calcium, a component in the CSS process, was tested by exposing canine islets to solutions containing either 100 mM or 200 mM calcium chloride, 10 mM HEPES buffer, and 20% PEGDA, MW 3,400 Da (Laysan Bio, Inc.) for 5, 10 or 15 minutes. A group was also exposed to 100 mM calcium chloride without PEGDA to evaluate the effect of calcium alone. Islets were suspended at approximately 5,000 IEQ/mL in the test solutions to emulate the high cell loading density associated with the encapsulation process. After calcium exposure, islets were washed twice with supplemented CMRL 1066 islet media and then incubated at 37° C. and 5% CO2 for 3 hours prior to assessment.
as §1

| Compound | pKa [1] | also measured |
| --- | --- | --- |
| O=C(CS)OCCOC(=O)CS [Glycol dimercaptoacetate] | 7.9-8.1 | – |
| SCCOCCS [2-mercaptoethyl ether] | 10.5-10.7 | – |
| N[C@H](CS)CCS [(S)-2 Aminobutane 1,4 dithiol] | 8.5 | – |
| CC(C)(O)C(=O)c1ccc(OCCO)cc1 [IRGACURE® 2959, 2-Hydroxy-4′-(2-hydroxyethoxy)-2-methylpropiophenone] | – | viable cell fraction ([2]; 0.025% (w/v)): 94.5%; viable cell fraction ([2]; 0.05% (w/v)): 87.2% |
| SCCSCCS [2,2'-thiodiethanethiol] | 9.4-9.5 | – |
| O=C(CCS)OCCOC(=O)CCS [Glycol di(3mercaptopropionate)] | 9.4-9.5 | – |
| SCCOCCOCCOCCOCCOCCS [Hexaethhylene glycol dithiol] | 10.5-10.7 | – |
| Glyceryl dithioglycolate | 7.9-8.1 | – |
| [Ca+2].[Cl-].[Cl-] [calcium, calcium chloride] | – | exposure time tolerated by islets ([3]; 100 mM calcium in concentrated, viscous PEGDA solution): at least 10 minutes; viability compared to controls ([3]; 100 mM calcium without PEGDA, 15 minutes): 97.6%; cytotoxicity to islets ([3]; 200 mM calcium): rapidly cytotoxic; viability compared to matched, untreated controls ([3]; 100 or 200 mM calcium with PEGDA or 100 mM calcium alone, 5 minutes exposure): above 97.5% |
